One assay addresses T1, hNK3 receptor (Homo sapiens, UniProt P29371).
T1 construct: expressed in transfected cells; host or cells: CHO cells
T1 sequence (P29371 1-465): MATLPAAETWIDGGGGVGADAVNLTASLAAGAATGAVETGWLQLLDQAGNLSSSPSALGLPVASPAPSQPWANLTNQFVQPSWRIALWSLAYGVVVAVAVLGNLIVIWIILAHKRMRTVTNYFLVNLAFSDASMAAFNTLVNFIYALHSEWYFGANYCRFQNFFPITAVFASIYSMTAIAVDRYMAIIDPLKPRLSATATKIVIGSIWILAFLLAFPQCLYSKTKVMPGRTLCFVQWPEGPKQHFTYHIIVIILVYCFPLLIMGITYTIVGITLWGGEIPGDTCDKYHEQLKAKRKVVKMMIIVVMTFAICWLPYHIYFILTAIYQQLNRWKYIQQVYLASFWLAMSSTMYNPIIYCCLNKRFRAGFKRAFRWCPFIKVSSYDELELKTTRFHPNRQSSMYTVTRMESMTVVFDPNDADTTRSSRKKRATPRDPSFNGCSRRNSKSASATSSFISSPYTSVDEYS
The assay can be described thus: Radioligand receptor binding inhibitory activity using membrane fraction of hNK3 receptor-expressing CHO cell ([125I]-NKB). Particulars: for inhibition at 10 µM / inhibition at 1 µM: read-out: hNK3 receptor binding inhibitory activity (inhibitory rate (%)). As for the experimental part: Radioligand Receptor Binding Inhibitory Activity Using Membrane Fraction of hNK3 Receptor-Expressing CHO Cell
hNK3 receptor-expressing CHO cells were cultured in a HAM-F12 medium containing 500 μg/mL Geneticin, 100 U/mL penicillin, 100 μg/mL streptomycin and 10% inactivated serum. The medium was removed before reaching confluence, and the cells were washed with PBS. PBS containing 0.5 mM EDTA was added to detach the cells from the flask and a cell suspension was recovered. The cells were recovered by low speed centrifugation. The cells were suspended in suspending buffer A (50 mM Tris-HCl (pH 7.4), 120 mM NaCl, 5 mM KCl, bacitracin (40 μg/mL), chymostatin (2 μg/mL), PMSF (0.5 mM), 1 mM EDTA), disrupted by a POLYTRON homogenizer (manufactured by KINEMATICA) and centrifuged at 2000×g for 10 min at 4° C. The supernatant was recovered, and ultracentrifuged at 40000×g for 60 min at 4° C. The precipitated fraction was suspended in suspending buffer B (50 mM Tris-HCl (pH 7.4), 3 mM MnCl2, 0.02% BSA, bacitracin (40 μg/mL), chymostatin (2 μg/mL), PMSF (0.5 mM)). The protein concentration of the suspension was measured using Bio-Rad Protein Assay kit and bovine serum albumin (protein preparation), and cryopreserved (at −80° C.) as a membrane fraction preparation of hNK3 receptor-expressing CHO cell until use for a binding assay.
The radioligand receptor binding assay was performed in a 96 well microassay plate format with a final volume of 200 μL. To the 96 well microassay plate were added 50 μL of assay buffer (50 mM Tris-HCl (pH 7.4), 0.02% bovine serum albumin, 2 μg/mL chymostatin, 40 μg/mL bacitracin, 40 μg/mL APMSF, 3 mM MnCl2), the aforementioned cryopreserved membrane fraction preparation suspended in assay buffer (50 μL (300 μg/mL)) and a test compound diluted with 50 μL of assay buffer (containing 2% dimethyl sulfoxide). The reaction was started by the addition of 50 μL of 400 pM [^125I]-NKB NKB (PerkinElmer Life Sciences) solution. For the measurement of the total binding, assay buffer (50 μL) containing 2% dimethyl sulfoxide was added instead of a diluted test compound solution, and for the measurement of non-specific binding, 50 μL of 4 μM unlabeled NKB (manufactured by Peptide Institute, Inc.) solution (diluted with assay buffer containing 2% dimethyl sulfoxide) was added.
After reaction at room temperature for 30 min, using a cell harvester (manufactured by PerkinElmer), the reaction was stopped by rapid filtration on a unifilter plate (GF/C) (manufactured by PerkinElmer), which had been immersed in 0.3% polyethyleneimine for one day, and the membrane fraction was washed 10 times with 50 mM Tris-HCl (pH 7.4) buffer containing 0.02% bovine serum albumin (250 μL). The GF/C filter plate was dried and 20 μL of MicroScinti-O (manufactured by PerkinElmer) was added to each well and the radioactivity was measured by TopCount (manufactured by PerkinElmer).
Specific binding is shown by the value obtained by subtracting non-specific binding from the total binding. The binding inhibitory activity of the test compound is shown by the ratio of the value obtained by subtracting the measured value associated with the addition of the test compound from the total binding, to the value of the specific binding.

The next assay has as its target T2, hNK2 receptor (Homo sapiens, UniProt P21452).
T2 construct: host or cells: CHO cells
T2 sequence (P21452 1-398): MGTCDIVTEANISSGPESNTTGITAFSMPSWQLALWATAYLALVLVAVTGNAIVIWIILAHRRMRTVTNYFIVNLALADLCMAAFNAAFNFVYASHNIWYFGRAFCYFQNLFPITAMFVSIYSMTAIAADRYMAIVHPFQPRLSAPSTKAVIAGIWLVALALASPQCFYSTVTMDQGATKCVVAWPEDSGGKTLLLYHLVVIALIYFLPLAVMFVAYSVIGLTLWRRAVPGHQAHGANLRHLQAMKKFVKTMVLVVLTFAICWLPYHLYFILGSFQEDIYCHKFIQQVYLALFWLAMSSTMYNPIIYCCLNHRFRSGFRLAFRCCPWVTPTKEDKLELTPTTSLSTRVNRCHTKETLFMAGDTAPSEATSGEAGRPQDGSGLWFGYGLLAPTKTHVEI
The assay can be described thus: Antagonistic activity determined by intracellular calcium concentration using neurokinin A and hNK2 receptor-expressing CHO cell (FLIPR). The class given is cell-based. Particulars: neurokinin A stimulation; for inhibition at 10 µM / inhibition at 1 µM / inhibition at 0.1 µM / inhibition at 0.01 µM: CHO, read-out: Antagonistic activity (inhibitory rate (%)). The procedure:
Evaluation of Antagonistic Activity Determined by Intracellular Calcium Concentration Using Test Compound, Neurokinin A and hNK2 Receptor-Expressing CHO Cell
hNK2 receptor-expressing CHO cells were seeded on a 384 well plate at 7.5×10^3 cells/well and cultured for 24 hr. Then the medium was removed, 1× recording medium (30 μL, Calcium kit II-Fluo 4: DOJINDO LABORATORIES, Japan) containing prepared 2.5 μg/mL Fluo 4, 2.5 mM probenecid and 20 mM HEPES was added, and the cells were cultured in CO2 incubator (37° C., 5% CO2) for 1 hr. A test compound diluted with 1× recording medium containing 0.05% bovine serum albumin and 20 mM HEPES (10 μL, 0.6% dimethyl sulfoxide) was added. Thereafter, 3 nM neurokinin A solution (20 μL) was added, and changes in the intracellular calcium concentration were measured by FLIPR (Molecular Devices Corporation, Japan). The inhibitory rate of the test compound was calculated with a reaction using DMSO alone and free of the compound as […] and a reaction using 1 nM NKA as 0% inhibition.

The values below come from patent US20110112133A1, “DIHYDRO PYRROLOQUINOLINE DERIVATIVES” (Takeda Pharmaceutical Company Limited, priority 2009, published 2011).

Structures are written as SMILES.

For the molecule `Cc1ccn(-c2ccc(C(=O)N[C@@H]3CCC(F)(F)C[C@@H]3C(=O)N3CCc4c(-c5ncc[nH]5)nc5ccccc5c43)cc2)n1` [Example 1, N-[(1R,2S)-4,4-difluoro-2-{[4-(1H-imidazol-2-yl)-2,3-dihydro-1H-pyrrolo[3,2-c]quinolin-1-yl]carbonyl}cyclohexyl]-4-(3-methyl-1H-pyrazol-1-yl)benzamide], the inhibition at 10 µM on hNK3 receptor (test compound 10^−5 M) is 28.4%; at hNK2 receptor (test compound 10^−5 M), 88.3%. Further, the “hNK3 receptor binding inhibitory activity (inhibitory rate (%))” value on hNK3 receptor (test compound 10^−6 M) is listed as 9.0%. Besides, at hNK2 receptor (test compound 10^−6 M), the inhibition at 1 µM is 102%. At hNK2 receptor (test compound 10^−7 M), the inhibition at 0.1 µM was 102%. Besides, the inhibition at 0.01 µM at hNK2 receptor (test compound 10^−8 M) is 100%.

Turning to `Br.Cc1ccn(-c2ccc(C(=O)N[C@@H]3CCC(F)(F)C[C@@H]3C(=O)N3CCc4c(-c5ncc[nH]5)nc5ccccc5c43)cc2)n1` [Example 2, N-[(1R,2S)-4,4-difluoro-2-{[4-(1H-imidazol-2-yl)-2,3-dihydro-1H-pyrrolo[3,2-c]quinolin-1-yl]carbonyl}cyclohexyl]-4-(3-methyl-1H-pyrazol-1-yl)benzamide hydrobromide], the figures for the “hNK3 receptor binding inhibitory activity (inhibitory rate (%))” value on hNK3 receptor (test compound 10^−5 M) and on hNK3 receptor (test compound 10^−6 M) were 32.7% and 4.1%, respectively. For the same molecule, the “Antagonistic activity (inhibitory rate (%))” value stood at 88.8% on hNK2 receptor (test compound 10^−5 M), 102.2% on hNK2 receptor (test compound 10^−6 M), 102.8% at hNK2 receptor (test compound 10^−7 M) and 100.4% on hNK2 receptor (test compound 10^−8 M).

On to `Cc1ccn(-c2ccc(C(=O)N[C@@H]3CCC(F)(F)C[C@@H]3C(=O)N3CCc4c(-c5ncc[nH]5)nc5ccccc5c43)cc2)n1.Cl` [Example 3, N-[(1R,2S)-4,4-difluoro-2-{(4-(1H-imidazol-2-yl)-2,3-dihydro-1H-pyrrolo[3,2-c]quinolin-1-yl]carbonyl}cyclohexyl]-4-(3-methyl-1H-pyrazol-1-yl)benzamide hydrochloride], for which the “hNK3 receptor binding inhibitory activity (inhibitory rate (%))” value at hNK3 receptor (test compound 10^−5 M) was 30.4%; at hNK3 receptor (test compound 10^−6 M), 9.4%. Moreover, the “Antagonistic activity (inhibitory rate (%))” value is recorded as 86.8% at hNK2 receptor (test compound 10^−5 M), 102.5% at hNK2 receptor (test compound 10^−6 M), 102.9% on hNK2 receptor (test compound 10^−7 M) and 100.5% on hNK2 receptor (test compound 10^−8 M).

Turning to `Cc1ccn(-c2ccc(C(=O)N[C@@H]3CCC(F)(F)C[C@@H]3C(=O)N3CCc4c(-c5nccn5COC(=O)C(C)(C)C)nc5ccccc5c43)cc2)n1` [Example 4, [2-(1-{[(1S,2R)-5,5-difluoro-2-({[4-(3-methyl-1H-pyrazol-1-yl)phenyl]carbonyl}amino)cyclohexyl]carbonyl)-2,3-dihydro-1H-pyrrolo[3,2-c]quinolin-4-yl)-1H-imidazol-1-yl]methyl 2,2-dimethylpropanoate], the inhibition at 10 µM on hNK3 receptor (test compound 10^−5 M) was -7.9%; on hNK2 receptor (test compound 10^−5 M), 91%. Moreover, the inhibition at 1 µM at hNK3 receptor (test compound 10^−6 M) was -6.1%; on hNK2 receptor (test compound 10^−6 M), 98.7%. Besides, the inhibition at 0.1 µM on hNK2 receptor (test compound 10^−7 M) turned out to be 39.5%. For the same molecule, at hNK2 receptor (test compound 10^−8 M), the inhibition at 0.01 µM is -6.8%.

As for `Cc1ccn(-c2ccc(C(=O)N[C@@H]3CCC(F)(F)C[C@@H]3C(=O)N3CCc4c(-c5ncc[nH]5)nc5ccc(F)cc5c43)cc2)n1` [Example 5, N-[(1R,2S)-4,4-difluoro-2-{[8-fluoro-4-(1H-imidazol-2-yl)-2,3-dihydro-1H-pyrrolo[3,2-c]quinolin-1-yl]carbonyl}cyclohexyl]-4-(3-methyl-1H-pyrazol-1-yl)benzamide], the inhibition at 10 µM on hNK3 receptor (test compound 10^−5 M) was determined as 15.2%; at hNK2 receptor (test compound 10^−5 M), 87.1%. Moreover, the inhibition at 1 µM at hNK3 receptor (test compound 10^−6 M) was -8.1%; on hNK2 receptor (test compound 10^−6 M), 100%. On hNK2 receptor (test compound 10^−7 M), the inhibition at 0.1 µM was found to be 102%. Moreover, the inhibition at 0.01 µM on hNK2 receptor (test compound 10^−8 M) is 100%.

Consider `Cc1ccn(-c2ccc(C(=O)N[C@@H]3CCC(F)(F)C[C@@H]3C(=O)N3CCc4c(-c5ccsc5)nc5ccccc5c43)cc2)n1` [Example 7, N-[(1R,2S)-4,4-difluoro-2-{(4-thiophen-3-yl-2,3-dihydro-1H-pyrrolo[3,2-c]quinolin-1-yl)carbonyl]cyclohexyl}-4-(3-methyl-1H-pyrazol-1-yl)benzamide], for which the inhibition at 10 µM came to 35.6% on hNK3 receptor (test compound 10^−5 M) and 83.7% on hNK2 receptor (test compound 10^−5 M). Moreover, the inhibition at 1 µM on hNK3 receptor (test compound 10^−6 M) came out at 5.9%; at hNK2 receptor (test compound 10^−6 M), 99.3%. The inhibition at 0.1 µM at hNK2 receptor (test compound 10^−7 M) was 100%. Moreover, the inhibition at 0.01 µM at hNK2 receptor (test compound 10^−8 M) is 98.6%.

Turning to `Cc1ccn(-c2ccc(C(=O)N[C@@H]3CCC(F)(F)C[C@@H]3C(=O)N3CCc4c(-c5ccccc5)nc5ccc(F)cc5c43)cc2)n1` [Example 9, N-{(1R,2S)-4,4-difluoro-2-[(8-fluoro-4-phenyl-2,3-dihydro-1H-pyrrolo[3,2-c]quinolin-1-yl)carbonyl]cyclohexyl}-4-(3-methyl-1H-pyrazol-1-yl)benzamide], the inhibition at 10 µM on hNK3 receptor (test compound 10^−5 M) amounted to 53.1%; on hNK2 receptor (test compound 10^−5 M) it was 84.1%. In addition, the inhibition at 1 µM on hNK3 receptor (test compound 10^−6 M) was determined as 27.7%; at hNK2 receptor (test compound 10^−6 M), 96.7%. In addition, the inhibition at 0.1 µM on hNK2 receptor (test compound 10^−7 M) was determined as 100%. For the same molecule, the inhibition at 0.01 µM at hNK2 receptor (test compound 10^−8 M) came to 81.9%.
